# Results taken from patent US20050277622A1, “1-Calcium phosphate-uracil and method for preparing thereof” (priority 2004, published 2005).
# Assays:
# Format in all cases: in vivo, human
# [1] = Clinical Case 1: continued bad cough not susceptive to antibiotics therapy; details: person two, oral, 15 mg per day for 5 days
# Procedure: person two, who had been suffering from a continued bad cough for 2 months and not susceptive to antibiotics therapy, was administrated orally with medicament of 1-calcium phosphate-uracil for 5 days, 15 mg per day.
# [2] = Clinical Case 2: cough, hyperplasia of prostate and constipation; details: person one, oral, 15 mg per day for 5 days
# Procedure: person one, who had been suffering from cough for about 50 years and hyperplasia of prostate for 7 years and recently relapsed into continued cough for 15 days and constipation, was administrated orally with medicament of 1-calcium phosphate-uracil for 5 days, 15 mg per day.
# [3] = Clinical Case 3: cold with fever of 39° C.; details: person, oral, 15 mg per day for 1 day
# Text: Therapeutic effect: fever was allayed after 1 day and symptom of cough disappeared after 2 days.
# [4] = Clinical Case 4: fever of 40.5° C.; details: person, oral, 15 mg one time per day for 1 day
# Text: Therapeutic effect: fever was allayed after 1 day and symptom of cough disappeared after 3 days.
# influenza [5] = test: Clinical Case 5: administration in advance during influenza period; details: 2 of 8 persons in a dormitory, oral in advance, 15 mg one time per day for 1 day; other 6 persons all infected
# influenza [6] = test: Clinical Case 5: treatment of persons infected with influenza; details: 2 infected persons, oral, 15 mg one time per day for 3 days
# Procedure: One day after infection, 2 of 6 infected persons were administrated orally with medicament of 1-calcium phosphate-uracil for 3 day, one time per day, 15 mg each time. Therapeutic effect: fever was allayed after 1 day and symptom of cough faded away after 3 days. Instead of being administrated with medicament of 1-calcium phosphate-uracil, the other 4 infected persons were treated according to conventional therapeutic regimen, recovered until after 15 days.
# [7] = Clinical Case 6: constipation for about 10 years; details: 4 persons, 1-2 times a week on conventional drugs; oral, 12 mg˜15 mg one time per day for 1 day
# Text: 4 persons, who had suffered from constipation for about 10 years, defecated 1-2 times a week when administrated with conventional drugs.
# [8] = Clinical Case 7: frequent premature beat, cardiac distress and constipation; details: person, oral
# Procedure: A person, who had suffered from frequent premature beat, cardiac distress for 3 years and constipation for 5 years, was administrated orally with medicament of 1-calcium phosphate-uracil for 20 days, 13 mg per day.
# The therapeutic effect: the symptoms of palpitation premature beat and cardiac distress disappeared completely after 20 days from administration and constipation symptom disappeared after 1 day from administration.
# [9] = Clinical Case 8: sleeping and stamina; details: 20 persons aging 12˜70 years; 15 mg per day for one day
# Text: The medicament can ameliorate sleeping and supplement stamina.
# [10] = Clinical Case 9: liver cancer in a most serious stage; details: person; oral, 15 mg one time per day for 10 months
# Procedure: A person, who suffered liver cancer in a most serious stage, was administrated orally with medicament of 1-calcium phosphate-uracil for 10 months, one time per day, 15 mg each time.
# Therapeutic effect: liver tumor was disappeared upon the examination of CT.
substance,measurement,setting,value
1-calcium phosphate-uracil,symptom of cough,[1]; cough for 2 months,cured completely
same,symptom of incontinence of urine,[1],disappeared
same,cough symptom,[2]; continued cough for 15 days,alleviated
same,frequency of nocturia,[2]; hyperplasia of prostate for 7 years,decreased significantly
same,constipation,[2],disappeared
same,fever was allayed after,[3]; fever of 39° C.,1 days
same,symptom of cough disappeared after,[3],2 days
same,fever was allayed after,[4]; fever of 40.5° C.,1 days
same,symptom of cough disappeared after,[4],3 days
same,infection with influenza,influenza [5],not infected with influenza
same,fever was allayed after,influenza [6]; one day after infection,1 days
same,symptom of cough faded away after,influenza [6]; conventional regimen recovered after 15 days,3 days
same,defecation,[7],"defecated smoothly, once a day"
same,constipation symptom disappeared after,"[8]; constipation for 5 years, 13 mg per day",1 days
same,symptoms of palpitation premature beat and cardiac distress disappeared completely after,[8]; 13 mg per day for 20 days,20 days
same,sleeping on the same day,[9],good sleeping
same,stamina in the next day,[9],full of vigor
same,liver tumor upon the examination of CT,[10],disappeared
